The structures appear in SMILES notation.

This series is described as follows: gradient 5% acetonitrile 3 min, to 50% in 2 min, to 85% in 15 min, held 3 min, 100 µL/min. To be noted: column: Zorbax Extend-C18 2.1 x 50 mm; eluents: water / acetonitrile, 0.1% formic acid. The essentials: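 The mobile phases were water and acetonitrile, each with 0.1% formic acid, pumped at 100 μL/min through a Zorbax Extend-C18 column (2.1 × 50 mm, 1.8 μm). Pure standards were injected as mixtures of ~100 molecules and detected by a quadrupole time-of-flight mass spectrometer in positive and negative ionization mode. Retention time came from computationally picked adduct peaks, each inspected by hand.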
`CCCOC(=O)c1ccc(Oc2c(C)oc3cc(OCC#N)ccc3c2=O)cc1` had an RP-LC retention time of 958 s.

In turn, `COCCNC(=O)c1ccc(CNS(=O)(=O)c2cc(C)ccc2C)cc1` had an RP-LC retention time of 703 s.

Turning to `COc1ccc(-c2nc(C3CC(=O)N(c4ccc(F)c(Cl)c4)C3)no2)cc1OC` (stereo not given), the RP-LC retention time stood at 963 s.

The compound `Cc1ccc(NS(=O)(=O)c2cc3n(c2)CCN(C(C)C)C3=O)cc1C` displayed an RP-LC retention time of 794 s.

In turn, `O=C(CSc1ncnc2ccccc12)N1CCCc2ccccc21` registered an RP-LC retention time of 844 s.

Regarding `Cc1ccccc1NC(=O)Cn1cnc2c(sc3nc(-c4ccccc4)ccc32)c1=O`, the RP-LC retention time stood at 961 s.

For `CCNc1cc(N2CCC(CCC(=O)NCc3ccc(C)o3)CC2)ncn1`, the RP-LC retention time was 642 s.

On to `O=C(Nc1ccccc1C(F)(F)F)N1CCC(n2cnnc2C2CC2)C1` (stereo not given), for which the RP-LC retention time stood at 640 s.

In turn, `CCn1cc(-c2nc(C)c(C(=O)N3CCc4ccccc43)s2)c2cccnc21` yielded an RP-LC retention time of 1030 s.

With `CCCc1c(C(=O)O)nnn1-c1ccccc1F`, the RP-LC retention time turned out to be 705 s.

Turning to `O=C(Nc1cnc(N2CCCCC2)nc1)c1ccc(Br)o1`, the RP-LC retention time worked out at 927 s.

The compound `CCc1nncn1C1CCN(C(=O)c2cc(C)cc(C)c2)CC1` displayed an RP-LC retention time of 655 s.

For the compound `Cc1nc2cc(-c3noc(C(C)NC(=O)c4ccccc4)n3)ccc2n(C2CCCC2)c1=O` (stereo not given), the RP-LC retention time worked out at 999 s.

As to `CC(C)NC(=O)C1CCCN(c2nccn3nc(-c4ccccc4Cl)cc23)C1` (stereo not given), the RP-LC retention time stood at 806 s.

The compound `COc1ccc(-c2cc(C(=O)Nc3cc(Cl)ccc3C)no2)cc1` displayed an RP-LC retention time of 1150 s.

`COc1ccc(S(=O)(=O)N2CCN(c3cc(C)nc(NC4CCCCC4)n3)CC2)cc1OC`: the RP-LC retention time came out at 756 s.

For the compound `CC1(C(=O)NC2CCCCCCC2)CN(S(C)(=O)=O)CC(=O)N1c1ccccc1Cl` (stereo not given), the RP-LC retention time amounted to 924 s.

Turning to `N#Cc1ccc(C(=O)N2CCC(c3cc(N)on3)CC2)cc1`, the RP-LC retention time is 641 s.

`CCOc1ccc(CC(=O)N2C[C@@H]3C[C@H]2C[C@@H]3NC(=O)c2ccccc2)cc1`: the RP-LC retention time was determined as 762 s.

Take `CCCc1ccc(S(=O)(=O)N2CCc3nc[nH]c3C2)cc1`: the RP-LC retention time stood at 656 s.

For `CCN(C(=O)c1ccco1)c1nc(-c2ccc(C)cc2)cs1`, the RP-LC retention time was found to be 1280 s.

For the compound `COCCn1ccc2nc(C)c(C(=O)NCc3ccc(C)o3)cc2c1=O`, the RP-LC retention time is 680 s.

Compound `O=C([C@@H]1COCC(=O)N1Cc1ccccc1)N1CCN(Cc2ccc3c(c2)OCO3)CC1` showed an RP-LC retention time of 606 s.

As to `O=C(Nc1ccc(F)cc1F)c1c(O)c2cccnc2n(-c2cccc(F)c2)c1=O`, the RP-LC retention time came out at 918 s.

In turn, `O=C(NC1CCCCC1)c1cc2c(s1)CCN(C(=O)c1ccc(F)cc1)C2` gave an RP-LC retention time of 893 s.

For the compound `CC(C)Cn1c(CCNC(=O)c2ccccc2)nc2cccnc21`, the RP-LC retention time is 683 s.

In turn, `CC1(C)CC(=O)c2cn(-c3ccccc3)c(=O)c(C(=O)Nc3ccc(Cl)cn3)c2C1` had an RP-LC retention time of 1050 s.

Compound `CCCN(CC1CC1)C(=O)[C@@H]1[C@H](c2cc(OC)c(OC)c(OC)c2)c2cc3c(cc2[C@H](O)[C@H]1CO)OCO3` yielded an RP-LC retention time of 740 s.

With `CN(C)C(=O)c1ccc2c(c1)N(CC(=O)N1CCN(c3ccccn3)CC1)C(=O)CS2`, the RP-LC retention time amounted to 573 s.

Compound `COc1ccc(C)cc1S(=O)(=O)N1CCCC(c2nnc(COc3ccccc3)o2)C1` (stereo not given) came in with an RP-LC retention time of 891 s.

`CCOCCCNC(=O)c1ccc2c(c1)CCCN2S(C)(=O)=O` returned an RP-LC retention time of 706 s.

In the case of `CCCC(=O)Nc1ccc2c(c1)CN(C(=O)Cc1ccc(F)cc1)C(C(=O)N(C)C)C2` (stereo not given), the RP-LC retention time turned out to be 672 s.

Consider `CN1CCN(C(=O)c2noc3c2CC(C(C)(C)C)CC3)CC1` (stereo not given), for which the RP-LC retention time is 582 s.

Compound `Cc1cccc(CNC(=O)C2CCN(c3nnc4c(Cl)cccn34)CC2)c1C` came in with an RP-LC retention time of 757 s.

For `COc1nccnc1NC1CCN(C(=O)c2ccnn2C)CC1`, the RP-LC retention time amounted to 608 s.

For `CCOc1ccc(CC(=O)N2CCN(c3c(C)n(C)c(=O)n(C)c3=O)CC2)cc1OCC`, the RP-LC retention time stood at 742 s.

Regarding `CCCCS(=O)(=O)N1CC(c2nc(C)no2)C2(CCOCC2)C1` (stereo not given), the RP-LC retention time amounted to 783 s.

In the case of `CCn1c(N2CCN(C(=O)Nc3ccccc3OC)CC2)nc2ccccc21`, the RP-LC retention time came out at 655 s.

Regarding `CC(C)CN1C(=O)c2cccn2CC1C(=O)N1CCCC1` (stereo not given), the RP-LC retention time amounted to 674 s.

`Cc1cc(C)cc(NS(=O)(=O)c2cc3n(c2)CCN(C)C3=O)c1` returned an RP-LC retention time of 727 s.

The compound `CC(C)(C)c1noc(-c2ccc(-n3cnc(C(=O)N4CCCCC4)c3)nc2)n1` had an RP-LC retention time of 742 s.

With `CCN(CC)S(=O)(=O)c1cc(-c2nnc(-c3ccccc3)o2)ccc1C`, the RP-LC retention time worked out at 1080 s.

Compound `CCn1cccc1-c1nc(-c2ccncc2)no1` came in with an RP-LC retention time of 833 s.

Turning to `Cc1ccc(-c2ccc(=O)n(CCc3nc(-c4ccc(F)cc4)no3)n2)cc1C`, the RP-LC retention time came out at 1100 s.

The compound `CN(C)c1cccc(C(=O)NC2CCN(c3ccc(F)cc3)C2=O)c1` (stereo not given) yielded an RP-LC retention time of 705 s.

Compound `Cc1ccccc1NC(=O)Cn1c(C(F)(F)F)nc2cc3c(cc21)OCCO3` returned an RP-LC retention time of 857 s.

`O=C(CSc1ccc(-c2ccccn2)nn1)N1CCCCC1` showed an RP-LC retention time of 669 s.

Regarding `Cc1cnc(-c2ccccc2)n1C1CCN(S(=O)(=O)c2ccc(C#N)cc2)C1` (stereo not given), the RP-LC retention time worked out at 680 s.

`CC(C)c1ccc(NC(=O)Cn2cccc2-c2nnc(C3CC3)o2)cc1`: the RP-LC retention time came out at 961 s.

`COC(=O)c1c(C)[nH]c(C(=O)N2CCC(CC(=O)NCCc3c(C)noc3C)CC2)c1C` displayed an RP-LC retention time of 654 s.

Turning to `CCCCC(=O)N(CC)c1nc(-c2ccccc2)cs1`, the RP-LC retention time worked out at 1330 s.

With `CC(=O)N1CCC(n2c(C)nc(C(=O)N3CCCCC3)c2C)CC1`, the RP-LC retention time stood at 559 s.

`CCOC(=O)c1cccc(N2C=C(C#N)S(=O)(=O)c3ccc(C)cc32)c1` returned an RP-LC retention time of 969 s.

The compound `Cn1c(N2CCN(C(=O)c3ccc(F)c(Cl)c3)CC2)cc(=O)n(C)c1=O` yielded an RP-LC retention time of 686 s.

Take `O=C(Nc1nc(-c2ccc(-c3ccccc3)cc2)cs1)C1CCCC1`: the RP-LC retention time came out at 1260 s.

As for `CCCOc1ccc(-c2cn3ccccc3n2)cc1[N+](=O)[O-]`, the RP-LC retention time is 681 s.

Compound `Cc1nc(-c2ccc(N3CCN(C(=O)c4ccc(Cl)cc4)CC3)nc2)sc1C` had an RP-LC retention time of 946 s.

Consider `O=C(CN1C(=O)C2CCCCN2c2ccc(S(=O)(=O)N3CCCC3)cc21)NCc1cccs1` (stereo not given), for which the RP-LC retention time was determined as 882 s.

The compound `CC1CCC(NC(=O)c2cc3sccc3n2Cc2ccc(F)cc2)CC1` (stereo not given) displayed an RP-LC retention time of 1260 s.

Compound `Cc1ccc(NC(=O)Cn2nc(C(=O)N3CCOCC3)c3ccccc32)c(Br)c1` gave an RP-LC retention time of 825 s.

For the compound `CCOCCCNC(=O)C1(C)Cn2c(ccc2-c2ccco2)C(=O)N1c1ccc(F)cc1` (stereo not given), the RP-LC retention time was 808 s.

Take `CC1CCC2(CC1)N=C(c1ccccc1)C(=O)N2CC(=O)Nc1ccc2c(c1)OCCO2` (stereo not given): the RP-LC retention time was found to be 1120 s.

As to `O=C(c1ccc(Br)cc1)N1CCN(C(=O)c2cc(-c3cccnc3)n[nH]2)CC1`, the RP-LC retention time was 626 s.

In turn, `O=C(NCc1ccccc1Cl)c1nnc(-c2ccc(S(=O)(=O)N3CCCCC3)cc2)o1` yielded an RP-LC retention time of 1030 s.

Compound `CC1CCN(C(=O)c2ccc3c(c2)n(C)c(=O)c2ccnn23)CC1` returned an RP-LC retention time of 587 s.

With `N=C(N)n1c(N)nc2ccccc2c1=O`, the RP-LC retention time is 613 s.

`COc1ccccc1-n1ccn2cc(-c3ccc(F)cc3F)nc2c1=O` showed an RP-LC retention time of 844 s.

With `Cc1sc(-c2cc(C(F)(F)F)on2)cc1S(=O)(=O)NCCC(C)C`, the RP-LC retention time is 1200 s.

`Cc1noc(C)c1-c1ccc(S(=O)(=O)Nc2ccccc2F)cc1`: the RP-LC retention time was 881 s.

Compound `Cc1cc(C)c(C)c(S(=O)(=O)N2CCCC2c2nc(-c3cccc(F)c3)no2)c1C` (stereo not given) gave an RP-LC retention time of 1360 s.

`Cc1ccc(-c2nsc3c(=O)n(C)c(SCC(=O)N4CCOc5ccc(C)cc54)nc23)cc1`: the RP-LC retention time was 1220 s.

On to `Nc1c(C(=O)NCC2CCCO2)c2nc3ccccc3nc2n1C1CCCC1` (stereo not given), for which the RP-LC retention time was determined as 1070 s.

For the compound `Cc1cccc(CNC(=O)C2CCCN(c3cc(=O)n(C)c(=O)n3C)C2)c1` (stereo not given), the RP-LC retention time stood at 701 s.

`Cn1c(=O)sc2cc(S(=O)(=O)N3CCC(C(=O)Nc4ccc5c(c4)OCO5)CC3)ccc21` returned an RP-LC retention time of 817 s.

Compound `COc1ccc(C)cc1NC(=O)C1CCN(S(C)(=O)=O)c2ccccc2O1` (stereo not given) had an RP-LC retention time of 994 s.

Turning to `CCC(C)NC(=O)C1CCN(S(=O)(=O)c2c(C)nn(-c3ccc(C)cc3)c2C)CC1` (stereo not given), the RP-LC retention time came to 683 s.

`O=C(NCCCNc1nc(Nc2cccc(NC(=O)N3CCCC3)c2)ncc1I)c1cccs1` came in with an RP-LC retention time of 691 s.

As to `CCC(Oc1ccc(=O)n(-c2ccc(F)cc2)n1)C(=O)NCCc1ccco1` (stereo not given), the RP-LC retention time is 759 s.

For the compound `O=C(Nc1nc(-c2ccccc2)ns1)c1ccccc1Cl`, the RP-LC retention time came out at 989 s.

The compound `Cc1cccc(-c2noc(CN3C(=O)COc4cc(Cl)ccc43)n2)c1` returned an RP-LC retention time of 1160 s.

(Values after the METLIN SMRT retention time set (Domingo-Almenara et al. 2019).)
